Results on 32 compounds are retold here after US6228877A, “Substituted pyrroles” (Hoffmann-La Roche Inc., priority 1998, dated 2001).

For the experiment, the system named is epithelial breast carcinoma cell line (MDAMB-435). The experiment can be described thus: effect of compounds on growth of epithelial breast carcinoma cell line MDAMB-435 (MTT, 5 days). The note with it: Homo sapiens, MDA-MB-435, 120 h, MDAMB-435 cells, 5 days post drug addition, 0.1% DMSO. Type of experiment: cell-based. How it is done:
The epithelial breast carcinoma cell line (MDAMB-435) was purchased from ATCC (American Type Cell Culture Collection) and was grown in culture in medium as recommended by ATCC. For analysis of the effect of various compounds on growth of these cells, the cells were plated at a concentration of 1500 cells/well in a 96 well tissue culture plate ("test plate). The day after the cells were plated, the compounds to be analyzed were dissolved in 100% DMSO (dimethyl sulfoxide) to yield at 10 mM stock solution. Each compound was diluted in H2 O to 1 mM and was added to triplicate wells in the first row of a 96 well master plate which contains medium to yield a final concentration of 40 μM. The compounds were then serially diluted in medium in the "master plate". The diluted compound(s) were then transferred to test plates containing cells. A row of vehicle "control cells" received DMSO. The final concentration of DMSO in each well was 0.1%. 5 days post drug addition, the plate was analyzed as follows:
MTT (3-(4-5 methyl thiazole-2-yl)-2,5-diphenyl tetrazolium bromide; thiazolyl blue) was added to each well to yield a final concentration of 1 mg/ml. The plate was then incubated at 37° C. for 21/2-3 hours. The MTT containing medium was then removed and 50 μl of 100% ethanol was added to each well to dissolve the formazan. The absorbences were then read using an automated plate reader (Bio-tek microplate reader).
IC50 's were calculated using the Reed and Munsch equation, see Am. J. Hygiene Vol. 27 pgs. 493-497, 1938.
Compound `CCOc1ccc2c(C3=C(c4cn(C)c5cccc(Br)c45)C(=O)NC3=O)cn(C)c2c1` [Br H H EtO, 3-(4-Bromo-1-methyl-1H-indol-3-yl)-4-(6-ethoxy-1-methyl-1H-indol-3-yl)-pyrrole-2,5-dione] returned a half-inhibitory concentration (IC50) of 0.2 µM.
As for `COc1ccc2c(C3=C(c4cn(C)c5cccc(OC)c45)C(=O)NC3=O)cn(C)c2c1` [CH3 O H H CH3 O, 3-(6-Methoxy-1-methyl-1H-indol-3-yl)-4-(4-methoxy-1-methyl-1H-indol-3-yl)-pyrrole-2,5-dione], the figure is 0.07 µM; as for `COc1cccc2c1c(C1=C(c3cn(C)c4cc([N+](=O)[O-])ccc34)C(=O)NC1=O)cn2C` [CH3 O H H NO2, 3-(4-Methoxy-1-methyl-1H-indol-3-yl)-4-(1-methyl-6-nitro-1H-indol-3-yl)-pyrrole-2,5-dione], 0.4 µM; as for `COc1ccc2c(C3=C(c4cn(C)c5cccc(F)c45)C(=O)NC3=O)cn(C)c2c1` [F H H CH3 O, 3-(4-Fluoro-1-methyl-1H-indol-3-yl)-4-(6-methoxy-1-methyl-1H-indol-3-yl)-pyrrole-2,5-dione], 0.2 µM.
Compound `CCOc1ccc2c(C3=C(c4cn(C)c5cccc(F)c45)C(=O)NC3=O)cn(C)c2c1` [F H H EtO, 3-(4-Fluoro-1-methyl-1H-indol-3-yl)-4-(6-ethoxy-1-methyl-1H-indol-3-yl)-pyrrole-2,5-dione] gave a concentration for half-maximal inhibition (IC50) of 0.032 µM. Compared with the last compound, the IC50 is about 6.2-fold lower.
In turn, `Cn1cc(C2=C(c3cn(C)c4cccc(F)c34)C(=O)NC2=O)c2ccc([N+](=O)[O-])cc21` [F H H NO2, 3-(4-Fluoro-1-methyl-1H-indol-3-yl)-4-(1-methyl-6-nitro-1H-indol-3-yl)-pyrrole-2,5-dione] displayed a 50% inhibitory concentration (IC50) of 0.05 µM.
The compound `Cc1ccc2c(c1)c(C1=C(c3cn(C)c4cc(C)ccc34)C(=O)NC1=O)cn2C` [H CH3 H CH3, 3-(1,6-Dimethyl-1H-indol-3-yl)-4-(1,5-dimethyl-1H-indol-3-yl)-pyrrole-2,5-dione] came in with a half-inhibitory concentration (IC50) of 0.4 µM.
`Cc1ccc2c(c1)c(C1=C(c3cn(C)c4cc([N+](=O)[O-])ccc34)C(=O)NC1=O)cn2C` [H CH3 H NO2, 3-(1,5-Dimethyl-1H-indol-3-yl)-4-(1-methyl-6-nitro-1H-indol-3-yl)-pyrrole-2,5-dione] displayed an IC50 of 0.13 µM.
In turn, `COc1ccc2c(c1)c(C1=C(c3cn(C)c4cc(OC)ccc34)C(=O)NC1=O)cn2C` [H CH3 O H CH3 O] displayed a half-maximal inhibitory concentration (IC50) of 0.07 µM.
On to `COc1ccc2c(c1)c(C1=C(c3cn(C)c4cc(SC)ccc34)C(=O)NC1=O)cn2C` [H CH3 O H CH3 S, 3-(5-Methoxy-1-methyl-11H-indol-3-yl)-4-(1-methyl-6-methylsulfanyl-1H-indol-3-yl)-pyrrole-2,5-dione], for which the 50% inhibitory concentration (IC50) was 0.2 µM.
For the compound `COc1ccc2c(c1)c(C1=C(c3cn(C)c4cc(C#N)ccc34)C(=O)NC1=O)cn2C` [H CH3 O H CN, 3-[4-(5-methoxy-1-methyl-1H-indol-3-yl)-2,5-dioxo-2,5-dihydro-1H-pyrrol-3-yl]-1-methyl-1H-indole-6-carbonitrile], the concentration for half-maximal inhibition (IC50) amounted to 0.07 µM.
To `COc1ccc2c(c1)c(C1=C(c3cn(C)c4cc(Cl)ccc34)C(=O)NC1=O)cn2C` [H CH3 O H Cl, 3-(6-Chloro-1-methyl-1H-indol-3-yl)-4-(5-methoxy-1-methyl-1H-indol-3-yl)-pyrrole-2,5-dione] belongs 0.2 µM.
As for `CCOc1ccc2c(C3=C(c4cn(C)c5ccc(OC)cc45)C(=O)NC3=O)cn(C)c2c1` [H CH3 O H EtO, 3-(6-Ethoxy-1-methyl-1H-indol-3-yl)-4-(5-methoxy-1-methyl-1H-indol-3-yl)-pyrrole-2,5-dione], the concentration for half-maximal inhibition (IC50) came to 0.07 µM. This IC50 is about 2.9-fold lower than that of the compound before.
In turn, `Cc1ccc2c(C3=C(c4cn(C)c5ccc(C#N)cc45)C(=O)NC3=O)cn(C)c2c1` [H CN H CH3, 3-[4-(1,6-Dimethyl-1H-indol-3-yl]-2,5-dioxo-2,5-dihydro-1H-pyrrol-3-yl]1-methyl-1H-indole-5-carbonitrile] showed a 50% inhibitory concentration (IC50) of 0.4 µM.
To `Cn1cc(C2=C(c3cn(C)c4cc([N+](=O)[O-])ccc34)C(=O)NC2=O)c2cc(C#N)ccc21` [H CN H NO2, 1-Methyl-3-[4-(1-methyl-6-nitro-1H-indol-3-yl)-2,5-dioxo-2,5-dihydro-1H-pyrrol-3-yl]-1H-indole-5-carbonitrile] belongs 1 µM; to `Cc1ccc2c(C3=C(c4cn(C)c5ccc(Cl)cc45)C(=O)NC3=O)cn(C)c2c1` [H Cl H CH3, 3-(5-Chloro-1-methyl-1H-indol-3-yl)-4-(1,6-dimethyl-1H-indol-3-yl)-pyrrole-2,5-dione], 0.4 µM.
To `Cn1cc(C2=C(c3cn(C)c4cc([N+](=O)[O-])ccc34)C(=O)NC2=O)c2cc(Cl)ccc21` [H Cl H NO2, 3-(5-Chloro-1-methyl-1H-indol-3-yl)-4-(l-methyl-6-nitro-1H-indol-3-yl)-pyrrole-2,5-dione] belongs 0.17 µM; to `Cn1cc(C2=C(c3cn(C)c4cc([N+](=O)[O-])ccc34)C(=O)NC2=O)c2ccc(Br)cc21` [H H Br NO2, 3-(6-Bromo-1-methyl-1H-indol-3-yl)-4-(1-methyl-6-nitro-1H-indol-3-yl)-pyrrole-2,5-dione], 0.07 µM; to `Cn1cc(C2=C(c3cn(C)c4cc([N+](=O)[O-])ccc34)C(=O)NC2=O)c2ccc(NC(=O)C(F)(F)F)cc21` [H H CF3 CONH NO2, N-{1-methyl-3-[4-(1-methyl-6-nitro-1H-indol-3-yl)-2,5-dioxo-2,5-dihydro-1H-pyrrol-3-yl]-1H-indol-3-yl}-trifluoroacetamide], 0.012 µM.
Take `Cc1ccc2c(C3=C(c4cn(C)c5cc(C#N)ccc45)C(=O)NC3=O)cn(C)c2c1` [H H CH3 CN, 3-[4-(1,6-dimethyl-1H-indol-3-yl)-2,5-dioxo-2,5-dihydro-1H-pyrrole-3-yl]-1-methyl-1H-indole-6-carbonitrile]: half-maximal inhibition (IC50) was put at 0.01 µM. This IC50 and that of the compound before are within 1.5-fold of each other.
To `COc1ccc2c(C3=C(c4cn(C)c5cc(NC(C)=O)ccc45)C(=O)NC3=O)cn(C)c2c1` [H H CH3 CONH CH3 O, N-{3-[4-(6-Methoxy-1-methyl-1H-indol-3-yl)-2,5-dioxo-2,5-dihydro-1H-pyrrol-3-yl]-1-methyl-1H-indol-6-yl}-acetamide] belongs 0.07 µM; to `CC(=O)Nc1ccc2c(C3=C(c4cn(C)c5cc([N+](=O)[O-])ccc45)C(=O)NC3=O)cn(C)c2c1` [H H CH3 CONH NO2], 0.02 µM.
To `CNc1ccc2c(C3=C(c4cn(C)c5cc(OC)ccc45)C(=O)NC3=O)cn(C)c2c1` [H H CH3 NH CH3 O, 3-(6-Methoxy-1-methyl-1H-indol-3-yl)-4-(1-methyl-6-methyl-amino-1H-indol-3-yl)-pyrrole-2,5-dione] belongs less than 0.01 µM; to `Cc1ccc2c(C3=C(c4cn(C)c5cc([N+](=O)[O-])ccc45)C(=O)NC3=O)cn(C)c2c1` [H H CH3 NO2, 3-(1,6-dimethyl-1H-indol-3-yl)-4-(1-methyl-6-nitro-1H-indol-3-yl)-pyrrole-2,5-dione], 0.07 µM; to `COc1ccc2c(C3=C(c4cn(C)c5cc(C)ccc45)C(=O)NC3=O)cn(C)c2c1` [H H CH3 OCH3, 3-(1,6-dimethyl-1H-indol-3-yl)-4-(6-methoxy-1-methyl-1H-indol-3-yl)-pyrrole-2,5-dione], 0.02 µM.
On to `COc1ccc2c(C3=C(c4cn(C)c5cc(NC=O)ccc45)C(=O)NC3=O)cn(C)c2c1` [H H CHONH CH3 O], for which the IC50 was found to be 0.01 µM.
As for `Cn1cc(C2=C(c3cn(C)c4cc([N+](=O)[O-])ccc34)C(=O)NC2=O)c2ccc(C#N)cc21` [H H CN NO2, 1-methyl-3-[4-(1-methyl-6-nitro-1H-indol-3-yl)-2,5-dioxo-2,5-dihydro-1H-pyrrol-3-yl]1H-indole-6-carbonitrile], the figure is 0.05 µM; as for `COc1ccc2c(C3=C(c4cn(C)c5cc(C#N)ccc45)C(=O)NC3=O)cn(C)c2c1` [H H CN OCH3, 3-[4-(6-methoxy-1-methyl-1H-indol-3-yl)-2,5-dioxo-2,5-dihydro-1H-pyrrole-3-yl]-1-methyl-indol-6-carbonitrile], 0.005 µM; as for `COC(=O)c1ccc2c(C3=C(c4cn(C)c5cc([N+](=O)[O-])ccc45)C(=O)NC3=O)cn(C)c2c1` [H H CO2 CH3 NO2, 1-methyl-3[4-(1-methyl-6-nitro-1H-indol-3-yl)-2,5-dioxo-2,5-dihydro-1H-pyrrole-3-yl]-1H-indole-6-carboxylic acid methyl ester], 0.007 µM.
`COc1ccc2c(C3=C(c4cn(C)c5cc(Cl)ccc45)C(=O)NC3=O)cn(C)c2c1` [H H Cl OCH3, 3-(6-chloro-1-methyl-1H-indol-3-yl)-4-(6-methoxy-1-methyl-1H-indol-3-yl)-pyrrole-2,5-dione]: the IC50 amounted to 0.007 µM.
Consider `CCOCCOCCOc1ccc2c(C3=C(c4cn(C)c5cc([N+](=O)[O-])ccc45)C(=O)NC3=O)cn(C)c2c1` [H H Et(OCH2 CH2)2 O NO2, 3-{6-[2-(2-Ethoxy-ethoxy)-ethoxy]-1-methyl-1H-indol-3-yl}-4-(1-methyl-6-nitro-1H-indol-3-yl)-pyrrole-2,5-dione], for which the half-maximal inhibitory concentration (IC50) turned out to be 0.04 µM.
`COc1ccc2c(C3=C(c4cn(C)c5cc(F)ccc45)C(=O)NC3=O)cn(C)c2c1` [H H F OCH3, 3-(6-fluoro-1-methyl-1H-indol-3-yl)-4-(6-methoxy-1-methyl-1H-indol-3-yl)-pyrrole-2,5-dione] showed an IC50 of 0.02 µM.
